From US20240368127A1, “HSD17B13 INHIBITORS AND USES THEREOF” (FL2022-001, Inc., priority 2021, published 2024)
Where a name gives a salt, the structure may show the parent alone.

Target: T1, Recombinant human HSD17B13 enzyme (Homo sapiens, UniProt Q7Z5P4)
T1 sequence (Q7Z5P4 20-300): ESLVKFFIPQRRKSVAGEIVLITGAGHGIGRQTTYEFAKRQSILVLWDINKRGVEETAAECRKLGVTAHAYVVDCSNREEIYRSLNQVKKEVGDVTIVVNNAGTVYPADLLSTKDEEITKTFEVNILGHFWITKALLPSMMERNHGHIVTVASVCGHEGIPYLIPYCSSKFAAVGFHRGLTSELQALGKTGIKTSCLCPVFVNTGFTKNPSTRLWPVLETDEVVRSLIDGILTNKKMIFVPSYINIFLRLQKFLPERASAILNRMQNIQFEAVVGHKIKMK
Experiment: HSD17b13 NAD(P)H-Glo biochemical assay
Details: 50 μM estradiol, 1 mM NAD+, 37° C. for 3 hours; read-out: HSD17β13 IC50
Description: Example B-1: HSD17b13 NAD (P) H-Glo Biochemical Assay
Recombinant human HSD17B13 enzyme. Substrate: estradiol (Sigma β-Estradiol E8875), 100 mM in DMSO. Cofactor: NAD+ Grade I free acid (Sigma 10127965001), 20 mM in H2O. Assay buffer final concentration: 20 mM Tris pH7.4 with 0.002% Tween-20 and 0.02% BSA. Assay performed in 384 well solid bottom plate (Corning 3570). Enzymatic activity detected by NAD (P) H-Glo™ Detection System (Promega G9062).
Inhibitor compounds were serially diluted in DMSO and then further diluted in assay buffer to a 10× concentration consisting of 1% DMSO.
HSD17b13 enzyme was diluted in 1× assay buffer to the desired enzyme concentration based on the specific activity of the enzyme lot. 20 μL of diluted enzyme was added to each well along with 2.5 μL of 10× inhibitor solution. Assay plate was incubated at RT for 20 minutes, and then 2.5 μL of a 10× substrate/cofactor mix was added to each well for a final concentration of 50 μM estradiol and 1 mM NAD+. Assay plate was incubated at 37° C. for 3 hours. NAD (P) H-Glo™ Detection System reagents were prepared according to manufacturer's specifications, and 25 μL was added to each well. After incubating for 1 hour at RT, luminescence was measured.

Cc1c2cc(N3CCN(S(C)(=O)=O)C[C@H]3Cc3ccccc3)ccc2nn1-c1cc(O)cc(C(F)(F)F)n1 [Compound 2.30, (R)-2-(5-(2-Benzyl-4-(methylsulfonyl)piperazin-1-yl)-3-methyl-2H-indazol-2-yl)-6-(trifluoromethyl)pyridin-4-ol]
IC50: 1000 to 30000 nM

COC(=O)[C@@H]1COCCN1c1ncc2c(-c3cc(C(F)(F)F)c(F)c(O)c3F)nn(C)c2n1 [Compound 11.23, Methyl (S)-4-(3-(2,4-difluoro-3-hydroxy-5-(trifluoromethyl)phenyl)-1-methyl-1H-pyrazolo[3,4-d]pyrimidin-6-yl)morpholine-3-carboxylate]
IC50: ≤ 100 nM

Oc1c(F)cc2nnn(-c3ccc(N4CCOC[C@H]4Cc4ccccc4)cc3)c2c1F [Compound 1.05, (R)-1-(4-(3-Benzylmorpholino)phenyl)-5,7-difluoro-1H-benzo[d][1,2,3]triazol-6-ol]
IC50: 100 to 1000 nM

Cn1nc(-c2cc(C(F)(F)F)c(F)c(O)c2F)c2cnc(C3CCCCN3Cc3ccccc3)nc21 (centres unmarked) [Compound 14, 3-(6-(1-Benzylpiperidin-2-yl)-1-methyl-1H-pyrazolo[3,4-d]pyrimidin-3-yl)-2,6-difluoro-5-(trifluoromethyl)phenol hydrochloride]
IC50: 100 to 1000 nM

Cn1nc(-c2cc(C(F)(F)F)c(F)c(O)c2F)c2cnc(N3CCN(S(C)(=O)=O)C(CC4CC4)C3)nc21 (centres unmarked) [Compound 5.33, 3-(6-(3-(Cyclopropylmethyl)-4-(methylsulfonyl)piperazin-1-yl)-1-methyl-1H-pyrazolo[3,4-d]pyrimidin-3-yl)-2,6-difluoro-5-(trifluoromethyl)phenol]
IC50: ≤ 100 nM

Cn1nc(-c2cc(C(F)(F)F)c(F)c(O)c2F)c2cnc(N3CCC[C@@H]3Cc3ccccc3)nc21 [Compound 5.30, (R)-3-(6-(2-Benzylpyrrolidin-1-yl)-1-methyl-1H-pyrazolo[3,4-d]pyrimidin-3-yl)-2,6-difluoro-5-(trifluoromethyl)phenol]
IC50: ≤ 100 nM

CN(C)c1nn(-c2cc(C(F)(F)F)c(F)c(O)c2F)c2ccc(N3CCN(S(C)(=O)=O)C[C@H]3Cc3ccccc3)cc12 [Compound 2.25, (R)-3-(5-(2-Benzyl-4-(methylsulfonyl)piperazin-1-yl)-3-(dimethylamino)-1H-indazol-1-yl)-2,6-difluoro-5-(trifluoromethyl)phenol]
IC50: ≤ 100 nM

CNC(=O)N1CCN(c2ncc3c(-c4cc(C(F)(F)F)c(F)c(O)c4F)nn(C)c3n2)C[C@@H]1Cc1ccccc1 [Compound 6.06, (S)-2-Benzyl-4-(3-(2,4-difluoro-3-hydroxy-5-(trifluoromethyl)phenyl)-1-methyl-1H-pyrazolo[3,4-d]pyrimidin-6-yl)-N-methylpiperazine-1-carboxamide]
IC50: ≤ 100 nM

CN(C)C(=O)N1CCN(c2ncc3c(-c4cc(C(F)(F)F)c(F)c(O)c4F)nn(C)c3n2)[C@H](Cc2ccccc2)C1 [Compound 6.01, (R)-3-Benzyl-4-(3-(2,4-difluoro-3-hydroxy-5-(trifluoromethyl)phenyl)-1-methyl-1H-pyrazolo[3,4-d]pyrimidin-6-yl)-N,N-dimethylpiperazine-1-carboxamide]
IC50: ≤ 100 nM

Cn1nc(-c2cc(C(F)(F)F)c(F)c(O)c2F)c2cnc(C3CCCN(Cc4ccccc4)C3)nc21 (centres unmarked) [Compound 14.01, 3-(6-(1-Benzylpiperidin-3-yl)-1-methyl-1H-pyrazolo[3,4-d]pyrimidin-3-yl)-2,6-difluoro-5-(trifluoromethyl)phenol hydrochloride]
IC50: 100 to 1000 nM

Cn1nc(-c2cc(C(F)(F)F)c(F)c(O)c2F)c2cnc(N3CCO[C@@H](Cc4cccc(C#N)c4)C3)nc21 [Compound 12.03, (S)-3-((4-(3-(2,4-Difluoro-3-hydroxy-5-(trifluoromethyl)phenyl)-1-methyl-1H-pyrazolo[3,4-d]pyrimidin-6-yl)morpholin-2-yl)methyl)benzonitrile]
IC50: ≤ 100 nM

Cc1nn(-c2cc(C(F)(F)F)cc(O)c2F)c2cnc(N3CCOC(Cc4ccccc4)C3)cc12 (centres unmarked) [Compound 2.05, 3-(5-(2-Benzylmorpholino)-3-methyl-1H-pyrazolo[3,4-c]pyridin-1-yl)-2-fluoro-5-(trifluoromethyl)phenol]
IC50: 100 to 1000 nM

Cn1nc(-c2cc(C(F)(F)F)c(F)c(O)c2F)c2cnc(N3CCOC[C@H]3Cc3ccccc3)nc21 [Compound 5.08, (R)-3-(6-(3-Benzylmorpholino)-1-methyl-1H-pyrazolo[3,4-d]pyrimidin-3-yl)-2,6-difluoro-5-(trifluoromethyl)phenol]
IC50: ≤ 100 nM

Cc1cccc(C[C@H]2CN(c3ncc4c(-c5cc(C(F)(F)F)c(F)c(O)c5F)nn(C)c4n3)CCO2)c1 [Compound 12.07, (S)-2,6-Difluoro-3-(1-methyl-6-(2-(3-methylbenzyl)morpholin)-1H-pyrazolo[3,4-d]pyrimidin-3-yl)-5-(trifluoromethyl)phenol]
IC50: ≤ 100 nM

Cn1nc(-c2cc(C(F)(F)F)c(F)c(O)c2F)c2cnc(N3CCN(S(C)(=O)=O)CC3CC3CC3)nc21 (centres unmarked) [Compound 11.13, 3-(6-(2-(Cyclopropylmethyl)-4-(methylsulfonyl)piperazin-1-yl)-1-methyl-1H-pyrazolo[3,4-d]pyrimidin-3-yl)-2,6-difluoro-5-(trifluoromethyl)phenol]
IC50: ≤ 100 nM

Cn1nc(-c2cc(C(F)(F)F)c(F)c(O)c2F)c2cnc(N3CCC[C@H]3Cc3ccccc3)nc21 [Compound 5.17, (S)-3-(6-(2-Benzylpyrrolidin-1-yl)-1-methyl-1H-pyrazolo[3,4-d]pyrimidin-3-yl)-2,6-difluoro-5-(trifluoromethyl)phenol]
IC50: ≤ 100 nM

CS(=O)(=O)N1CCN(c2cc3c(Cl)nn(-c4cc(C(F)(F)F)c(Cl)c(O)c4F)c3cn2)[C@H](Cc2ccccc2)C1 [Compound 2.22, (R)-3-(5-(2-Benzyl-4-(methylsulfonyl)piperazin-1-yl)-3-chloro-1H-pyrazolo[3,4-c]pyridin-1-yl)-6-chloro-2-fluoro-5-(trifluoromethyl)phenol]
IC50: ≤ 100 nM

CN(c1ncc2c(-c3cc(C(F)(F)F)c(F)c(O)c3F)nn(C)c2n1)C1(Cc2ccccc2)CCOCC1 [Compound 11.07, 3-(6-((4-Benzyltetrahydro-2H-pyran-4-yl)(methyl)amino)-1-methyl-1H-pyrazolo[3,4-d]pyrimidin-3-yl)-2,6-difluoro-5-(trifluoromethyl)phenol]
IC50: ≤ 100 nM

Cn1nc(-c2cc(C(F)(F)F)c(F)c(O)c2F)c2cnc(N3CCOCC3Cc3ccccn3)nc21 (centres unmarked) [Compound 15.06, 2,6-Difluoro-3-(1-methyl-6-(3-(pyridin-2-ylmethyl)morpholino)-1H-pyrazolo[3,4-d]pyrimidin-3-yl)-5-(trifluoromethyl)phenol]
IC50: ≤ 100 nM

C#Cc1cc(-c2nn(C)c3nc(N4CCN(S(C)(=O)=O)C[C@H]4Cc4ccccc4)ncc23)c(F)c(O)c1F [Compound 11.17, (R)-3-(6-(2-Benzyl-4-(methylsulfonyl)piperazin-1-yl)-1-methyl-1H-pyrazolo[3,4-d]pyrimidin-3-yl)-5-ethynyl-2,6-difluorophenol]
IC50: ≤ 100 nM

Cn1nc(-c2cc(C(F)(F)F)c(F)c(O)c2F)c2cnc(N3CCO[C@@H](Cc4ccc(C#N)cc4)C3)nc21 [Compound 12.02, (S)-4-((4-(3-(2,4-Difluoro-3-hydroxy-5-(trifluoromethyl)phenyl)-1-methyl-1H-pyrazolo[3,4-d]pyrimidin-6-yl)morpholin-2-yl)methyl)benoznitrile]
IC50: ≤ 100 nM

Cc1nn(-c2cc(O)cc(C(F)(F)F)c2)c2ccc(N3CCN(S(C)(=O)=O)C[C@H]3Cc3ccccc3)cc12 [Compound 2.26, (R)-3-(5-(2-Benzyl-4-(methylsulfonyl)piperazin-1-yl)-3-methyl-1H-indazol-1-yl)-5-(trifluoromethyl)phenol]
IC50: 100 to 1000 nM

CS(=O)(=O)N1CCN(c2ccc(-n3nnc4cc(F)c(O)c(F)c43)cc2)C[C@@H]1Cc1ccccc1 [Compound 1.02, (S)-1-(4-(3-Benzyl-4-(methylsulfonyl)piperazin-1-yl)phenyl)-5,7-difluoro-1H-benzo[d][1,2,3]triazol-6-ol]
IC50: ≤ 100 nM

Cn1nc(-c2cc(C(F)(F)F)c(F)c(O)c2F)c2cnc(N3CCOCC3CC3CCC3)nc21 (centres unmarked) [Compound 5.10, 3-(6-(3-(Cyclobutylmethyl)morpholino)-1-methyl-1H-pyrazolo[3,4-d]pyrimidin-3-yl)-2,6-difluoro-5-(trifluoromethyl)phenol]
IC50: ≤ 100 nM

Cn1nc(-c2cc(C(F)(F)F)c(F)c(O)c2F)c2cnc(N3CCOCC3CN3CCCC3)nc21 (centres unmarked) [Compound 5.29, 2,6-Difluoro-3-(1-methyl-6-(3-(pyrrolidin-1-ylmethyl)morpholino)-1H-pyrazolo[3,4-d]pyrimidin-3-yl)-5-(trifluoromethyl)phenol]
IC50: 100 to 1000 nM

CN(c1ncc2c(-c3cc(C(F)(F)F)c(F)c(O)c3F)nn(C)c2n1)C1CCCN(Cc2ccccc2)C1 (centres unmarked) [Compound 5.36, 3-(6-((1-Benzylpiperidin-3-yl)(methyl)amino)-1-methyl-1H-pyrazolo[3,4-d]pyrimidin-3-yl)-2,6-difluoro-5-(trifluoromethyl)phenol]
IC50: ≤ 100 nM
